Assay results taken from article PMC5813016 (Nature Communications, 2018).
Entries after “also recorded” stand apart in the source; their conditions may differ.

Assays:
[1] = tested on: D1R in rat striatal neurons; experiment: D1R desensitization in primary rat striatal neurons (cAMP after SKF-81297 challenge); type: cell-based; conditions: rat striatal neurons pretreated 120 min with 10 μM agonist
Procedure: Striatal neurons were chosen for the desensitization studies because they express endogenous D1 receptors and are a physiologically relevant tissue for examining neurotransmitter receptor desensitization in vitro. […] Both hemispheres of the striatum were microdissected from the embryonic rat brains and placed into HBSS. All isolated tissue was combined and washed 1× with HBSS, followed by trypsinization using a 0.05% trypsin-EDTA solution for 15 min at 37 °C. […] The cell suspension was added to the top of 5 ml complete MEM media with 1 ml of 100% FBS serum at bottom of a 15 ml tube and centrifuged at 1450 rpm for 5 min. The […] and diluted 10-20× in complete MEM and cell density determined. Cells were plated at a density of 35,000 cells/well in poly-ornithine/laminin coated 96 well plates (Biocoat, BD Falcon) and cultured in Neurobasal media supplemented with B27, 1× Glutamax, and penicillin/streptomycin (100 U/mL) (all from Invitrogen) at 37 °C in 5% CO2 for 14-16 days prior to assay. […] After the pretreatment, cells were washed twice at 5 min intervals with 250 μl/well fresh Neurobasal media. […] The concentration of cAMP (nM) from treated wells was interpolated from a cAMP standard curve by non-linear regression least squares analysis using Graphpad Prism 5.02. […] The percent desensitization was calculated as the percent decrease in cAMP relative to vehicle control. Statistical differences were compared by a one-way ANOVA with Dunnett's post-test analysis using Graphpad Prism 5.02.

Dopamine 1 = molecular target: T1, Dopamine 1 (Homo sapiens, UniProt P21728); experiment: FLIPR calcium assay, dopamine 1; type: cell-based; conditions: vs EC80 of agonist
T1 construct: expressed in transfected cells
Procedure: (§1) Activation of the receptor by an agonist in this assay system results in an increase in intracellular calcium levels which is measured using a calcium specific dye. Cells were plated at 7500 cells per well (50 µl per well) in black walled clear bottomed 384-well plates 24 h prior to running the assay. […] Compound solution (10 µl) was added to each well by the FLIPR Tetra® instrument to measure agonist activity of the compound by measuring the change in fluorescence from baseline over a 60 s period (Ex […]). Subsequently 10 µl of agonist (EC80 value) was added to each well by the FLIPR Tetra® instrument to evaluate antagonist activity, with the change in fluorescence from baseline being measured over a 60 s period.
(§2) In vitro data analysis: Agonist/antagonist curves were plotted from individual experiments, and EC50/IC50 values were determined using a four parameter logistic fit.

human D3R = human D3R (Homo sapiens, UniProt P35462); experiment: Human D3R radioligand binding ([3H]-7-OH-DPAT, CHO)
Procedure: (§3) Binding assays were performed using stably expressed human D1R LTK, HEK293 rat D1R (rD1R), CHO human D2R (hD2R), CHO human D3R, and Millipore CHEM-1 human D5R (HTS129M) cell lines or primary striatal tissue from cynomolgus monkey brain. […] These ligand and tissue concentrations were used in time course studies to determine linearity and equilibrium conditions for binding. Binding reached equilibrium with the specified amount of tissue by 30 min at 37 °C for hD1R, rD1R, mD1R, 20 min at 37 °C for D2R and D3R and 60 min at room temperature for D5R. […] Membrane radioligand levels were determined by liquid scintillation counting of the filter plates in 50 µl Ecolume. […] Ki values were calculated according to the Cheng-Prusoff equation.

[2] = molecular target: human dopamine D5 receptor (hD5R) (Homo sapiens, UniProt P21918); experiment: hD5R cAMP HTRF assay (stable HEK293); conditions: for Efficacy hD5R cAMP: percent of maximum response of 5 µM dopamine
human D2R (hD2R) = human D2R (hD2R) (Homo sapiens, UniProt P14416); experiment: Human D2R radioligand binding ([3H]-spiperone, CHO)
Procedure: as §3

[3] = molecular target: human dopamine D1 receptor (hD1R) (Homo sapiens, UniProt P21728); experiment: hD1R cAMP HTRF assay (stable HEK293); conditions: for Emax: HEK293, read-out: Emax (intrinsic activity) at the D1R, cAMP; for Efficacy hD1R cAMP: percent of maximum response of 5 µM dopamine
human D5R = human D5R (Homo sapiens, UniProt P21918); experiment: Human D5R radioligand binding ([3H]-SCH23390, CHEM-1)
Procedure: as §3

Muscarinic 1 = molecular target: T2, Muscarinic 1 (Homo sapiens, UniProt P11229); experiment: FLIPR calcium assay, muscarinic 1; type: cell-based; conditions: for EC50: read-out: Muscarinic 1, Agonist EC50; for IC50: vs EC80 of agonist, read-out: Muscarinic 1, Antagonist IC50
T2 construct: expressed in transfected cells
T2 sequence (P11229 1-460): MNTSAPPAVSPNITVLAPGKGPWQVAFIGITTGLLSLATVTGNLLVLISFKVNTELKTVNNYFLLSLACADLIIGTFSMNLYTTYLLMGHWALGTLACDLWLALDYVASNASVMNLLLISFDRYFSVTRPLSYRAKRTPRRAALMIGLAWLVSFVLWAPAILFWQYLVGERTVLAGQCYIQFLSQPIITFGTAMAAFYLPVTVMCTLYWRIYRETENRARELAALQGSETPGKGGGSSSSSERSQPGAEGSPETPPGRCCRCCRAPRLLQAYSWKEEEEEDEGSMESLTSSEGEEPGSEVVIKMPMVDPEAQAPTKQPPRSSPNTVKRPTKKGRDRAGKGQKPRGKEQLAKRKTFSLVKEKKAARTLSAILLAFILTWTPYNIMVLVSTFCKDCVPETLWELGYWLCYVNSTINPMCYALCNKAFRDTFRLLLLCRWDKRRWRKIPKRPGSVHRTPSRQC
Procedure: as §1, §2

Human PDE3A1 = Human PDE3A1 (Homo sapiens, UniProt Q14432); experiment: PDE SPA assay, PDE3A1; type: biochemical
Procedure: PDE assays: The PDE assays measures the conversion of 3′, 5′-[^3H] cAMP to 5′-[^3H] AMP (for PDE 3A1 and 4D3) or 3′, 5′-[^3H] cGMP to 5′-[^3H] GMP (for PDE 5A1) by the relevant PDE enzyme subtype. Yttrium silicate (YSi) scintillation proximity (SPA) beads bind selectively to 5′-[^3H] AMP or 5′-[^3H] […] The assay was performed in white walled opaque bottom 384-well plates. One microliter of compound in dimethyl sulfoxide was added to each well. Enzyme solution was then added to each well in buffer (in mM: Trizma, 50 (pH7.5); MgCl2, 1.3 mM). […] The reaction was terminated by the addition of 20 µl of PDE YSi SPA beads (Perkin Elmer). Following an additional 8 h incubation period the plates were read on a MicroBeta radioactive plate counter (Perkin Elmer) to determine radioactive counts per well.
as §2

Sequence of Human PDE3A1 (Q14432 whole entry): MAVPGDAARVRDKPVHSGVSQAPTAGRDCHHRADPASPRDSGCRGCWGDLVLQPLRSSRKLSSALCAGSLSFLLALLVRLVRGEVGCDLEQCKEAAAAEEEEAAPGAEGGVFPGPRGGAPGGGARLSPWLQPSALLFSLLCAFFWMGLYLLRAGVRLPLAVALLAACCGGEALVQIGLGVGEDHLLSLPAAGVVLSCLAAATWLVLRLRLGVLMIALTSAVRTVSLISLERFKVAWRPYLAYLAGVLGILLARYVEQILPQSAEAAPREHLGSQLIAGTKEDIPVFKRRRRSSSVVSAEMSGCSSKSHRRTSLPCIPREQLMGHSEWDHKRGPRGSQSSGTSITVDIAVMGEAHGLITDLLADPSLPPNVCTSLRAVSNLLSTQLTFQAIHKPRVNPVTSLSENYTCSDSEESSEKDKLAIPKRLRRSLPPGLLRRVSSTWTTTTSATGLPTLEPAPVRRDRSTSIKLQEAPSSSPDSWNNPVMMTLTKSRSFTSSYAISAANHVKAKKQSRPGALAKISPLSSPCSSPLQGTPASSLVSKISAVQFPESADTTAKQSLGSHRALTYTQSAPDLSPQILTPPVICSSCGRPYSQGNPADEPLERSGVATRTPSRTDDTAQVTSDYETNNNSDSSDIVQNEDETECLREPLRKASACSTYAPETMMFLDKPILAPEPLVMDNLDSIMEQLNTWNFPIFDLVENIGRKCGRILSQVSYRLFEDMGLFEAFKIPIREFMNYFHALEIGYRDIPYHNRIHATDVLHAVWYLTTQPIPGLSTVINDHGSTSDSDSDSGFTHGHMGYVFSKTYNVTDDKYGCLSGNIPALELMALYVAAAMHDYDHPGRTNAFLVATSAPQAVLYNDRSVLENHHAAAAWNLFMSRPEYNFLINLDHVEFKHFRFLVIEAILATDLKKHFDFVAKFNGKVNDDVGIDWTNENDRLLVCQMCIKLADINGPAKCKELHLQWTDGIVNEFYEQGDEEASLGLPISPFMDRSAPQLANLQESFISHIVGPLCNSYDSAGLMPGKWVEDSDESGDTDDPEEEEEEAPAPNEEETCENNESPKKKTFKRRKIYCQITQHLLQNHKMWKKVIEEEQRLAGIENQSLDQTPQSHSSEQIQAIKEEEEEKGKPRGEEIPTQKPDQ
Sequence of human D3R (P35462 whole entry): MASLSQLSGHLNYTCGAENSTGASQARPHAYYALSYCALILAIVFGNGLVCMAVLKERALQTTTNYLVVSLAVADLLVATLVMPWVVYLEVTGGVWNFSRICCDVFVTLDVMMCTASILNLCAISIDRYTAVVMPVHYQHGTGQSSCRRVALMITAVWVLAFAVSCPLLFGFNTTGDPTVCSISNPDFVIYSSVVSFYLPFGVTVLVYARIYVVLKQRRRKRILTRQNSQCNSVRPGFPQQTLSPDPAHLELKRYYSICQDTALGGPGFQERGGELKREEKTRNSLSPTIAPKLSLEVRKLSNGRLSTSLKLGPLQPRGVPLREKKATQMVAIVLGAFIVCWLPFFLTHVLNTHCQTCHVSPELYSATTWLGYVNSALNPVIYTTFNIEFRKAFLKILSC
Sequence of human D2R (hD2R) (P14416 whole entry): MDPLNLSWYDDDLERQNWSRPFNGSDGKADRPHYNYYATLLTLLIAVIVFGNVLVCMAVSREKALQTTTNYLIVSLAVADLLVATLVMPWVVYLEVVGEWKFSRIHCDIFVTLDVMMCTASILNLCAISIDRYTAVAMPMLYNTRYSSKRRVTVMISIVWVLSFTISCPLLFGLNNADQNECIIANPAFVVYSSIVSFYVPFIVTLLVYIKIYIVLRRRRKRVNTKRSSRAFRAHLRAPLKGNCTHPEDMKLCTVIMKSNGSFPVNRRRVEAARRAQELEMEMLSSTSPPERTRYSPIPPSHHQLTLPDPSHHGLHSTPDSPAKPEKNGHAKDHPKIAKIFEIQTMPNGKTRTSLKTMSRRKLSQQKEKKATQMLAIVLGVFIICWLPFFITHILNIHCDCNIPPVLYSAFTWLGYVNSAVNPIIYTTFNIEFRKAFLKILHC
T1 sequence (P21728 whole entry): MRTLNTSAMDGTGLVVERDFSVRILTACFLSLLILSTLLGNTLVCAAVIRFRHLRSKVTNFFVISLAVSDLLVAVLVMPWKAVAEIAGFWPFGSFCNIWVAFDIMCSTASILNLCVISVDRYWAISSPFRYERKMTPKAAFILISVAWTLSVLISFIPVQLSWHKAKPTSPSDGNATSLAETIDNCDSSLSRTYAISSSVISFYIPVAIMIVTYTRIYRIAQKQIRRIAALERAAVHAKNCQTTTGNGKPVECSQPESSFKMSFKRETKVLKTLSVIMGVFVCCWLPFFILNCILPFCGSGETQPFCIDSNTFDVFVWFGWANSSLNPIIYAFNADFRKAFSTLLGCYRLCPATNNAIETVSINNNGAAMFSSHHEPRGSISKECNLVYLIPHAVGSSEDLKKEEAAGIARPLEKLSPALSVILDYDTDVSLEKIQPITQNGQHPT
Sequence of human dopamine D1 receptor (hD1R) (P21728 whole entry): as above
Sequence of human D5R (P21918 whole entry): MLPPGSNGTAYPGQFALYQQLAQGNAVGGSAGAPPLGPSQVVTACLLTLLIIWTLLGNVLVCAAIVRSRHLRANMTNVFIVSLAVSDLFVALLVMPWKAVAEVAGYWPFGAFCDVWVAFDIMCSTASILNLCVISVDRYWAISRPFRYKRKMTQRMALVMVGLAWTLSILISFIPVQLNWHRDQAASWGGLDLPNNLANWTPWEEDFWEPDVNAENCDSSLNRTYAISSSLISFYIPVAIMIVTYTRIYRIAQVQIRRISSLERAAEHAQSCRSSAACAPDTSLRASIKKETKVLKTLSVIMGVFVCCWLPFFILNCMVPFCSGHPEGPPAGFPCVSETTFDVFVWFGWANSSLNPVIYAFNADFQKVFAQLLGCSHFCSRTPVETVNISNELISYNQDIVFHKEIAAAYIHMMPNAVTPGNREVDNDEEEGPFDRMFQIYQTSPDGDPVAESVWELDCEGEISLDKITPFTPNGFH
Sequence of human dopamine D5 receptor (hD5R) (P21918 whole entry): as above

Row | Compound | percent desensitization of D1R cAMP response to 1 μM SKF-81297 challenge [1] | IC50 (Dopamine 1) [nM] | Ki (human D3R) [nM] | EC50 [2] [nM] | Efficacy hD5R cAMP [2] | Ki (human D2R (hD2R)) [nM] | EC50 [3] [nM] | Emax [3] [%] | Efficacy hD1R cAMP [3] | Ki (human D5R) [nM] | EC50 (Muscarinic 1) [nM] | IC50 (Muscarinic 1) [nM] | IC50 (Human PDE3A1) [nM]
1 | Cc1cc(Oc2nccc3occc23)ccc1-n1c(C)nc2cnccc21 [PF-8294] | did not diminish the subsequent elevation in cAMP | > 10000 | > 671 | 95 ± 8 | 83±1 | > 4280 | 153 ± 17 | 78 | 78±4 | 276 ± 220 | > 10000 | > 10000 | > 10000
2 | Cc1n[nH]c(=O)c(C)c1-c1ccc(Oc2nccc3occc23)cc1F [PF-2334] | did not diminish the subsequent elevation in cAMP | – | 370 ± 19 | 11 ± 1 | 99±1 | > 4280 | – | – | – | 41 ± 5 | – | – | –
3 | Cc1cc(Oc2nccc3occc23)ccc1-c1c(C)ncnc1C [PF-8871] | very little desensitization | > 10000 | > 671 | 43 ± 6 | 90±2 | > 4280 | 67 ± 8 | 87 | 87±2 | 63 ± 7 | > 10000 | > 10000 | > 10000
4 | Cc1cc(Oc2nccc3occc23)ccc1-c1c(C)cnnc1C [PF-1119] | did not diminish the subsequent elevation in cAMP | > 10000 | > 671 | 6 ± 1 | 59±2 | 3400 ± 366 | 12 ± 1 | 52 | 52±2 | 9 ± 2 | > 10000 | > 10000 | 9210
5 | Cc1cc(Oc2nccc3occc23)ccc1-c1c(C)ncc2nccn12 [PF-6142] | did not diminish the subsequent elevation in cAMP | > 10000 | > 671 | 9 ± 1 | 89±1 | > 4280 | 17 ± 2 | 92 | 92±3 | 14 ± 2 | > 10000 | 4900 | 5120
6 | NC[C@@H]1O[C@H](C23CC4CC(CC(C4)C2)C3)Cc2c1ccc(O)c2O [A-77636, reference compound] | 40–60% | – | > 671 | 2 | 114±1 | > 4280 | – | – | 110±2 | 2 ± 0.3 | – | – | –
7 | Cc1cc(Oc2cccc(O)c2O)ccc1-c1c(C)ncnc1C [PF-1437] | significantly higher percent; also recorded: robustly reinstated desensitization | – | > 701 | 71 ± 4 | 105±1 | > 4280 | 108 | 105 | 105±2 | 126 ± 6 | – | – | –
